Test results: US10709709B2, “Substituted carbonucleoside derivatives useful as anticancer agents” (Pfizer Inc., priority 2016, dated 2020)

Key:
[1] = system: A549 lung adenocarcinoma cells; test: A549 proliferation assay (Cell Titer Glo); assay type: cell-based; settings: Homo sapiens, A549, 168 h, 7 days with compound, cell viability by Cell Titer Glo (ATP)
Experimental: A549 lung adenocarcinoma cells (American Type Culture Collection) were maintained in DMEM growth media (Life Technologies) supplemented with 10% v/v heat inactivated fetal bovine serum (Sigma) and cultured at 37° C., 5% CO2. Exponentially growing A549 cells were plated in 96-well black tissue culture treated plates (Corning) at a density of […] in a volume of 100 μl culture media and allowed to adhere overnight at 37° C., 5% CO2. The following day, compound plates were prepared by making nine-point 3.3-fold dilutions in DMSO with a top concentration of 10 mM. Compounds were further diluted in culture media and 11 μl was added to the cells (final top assay concentration was 10 μM and DMSO was 0.2%). Cells were incubated with compound at 37° C., 5% CO2 for 7 days with media and compound replacement on day 4. Cell viability was assayed on Day 7 by adding 100 μl Cell Titer Glo (Promega) reagent to the plate to measure the amount of ATP present in the cells. Luminescence was read using the Envision 2104 Multilabel Reader (Perkin Elmer). The 50% inhibitory concentration (IC50) was determined using a 4-parameter fit model normalized to the DMSO control in dose response.

[2] = molecular target: PRMT5/MEP50 protein complex (Homo sapiens (Human), UniProt O14744); test: PRMT5 biochemical assay (3H-SAM methylation of H4(1-21) peptide, filter plate scintillation); settings: 10 nM PRMT5/MEP50 complex, 200 nM H4(1-21) peptide, 1 uM SAM, 25 minute incubation at room temperature
PRMT5/MEP50 protein complex, sequence (O14744 other isoform, or with tags, fused parts or gaps): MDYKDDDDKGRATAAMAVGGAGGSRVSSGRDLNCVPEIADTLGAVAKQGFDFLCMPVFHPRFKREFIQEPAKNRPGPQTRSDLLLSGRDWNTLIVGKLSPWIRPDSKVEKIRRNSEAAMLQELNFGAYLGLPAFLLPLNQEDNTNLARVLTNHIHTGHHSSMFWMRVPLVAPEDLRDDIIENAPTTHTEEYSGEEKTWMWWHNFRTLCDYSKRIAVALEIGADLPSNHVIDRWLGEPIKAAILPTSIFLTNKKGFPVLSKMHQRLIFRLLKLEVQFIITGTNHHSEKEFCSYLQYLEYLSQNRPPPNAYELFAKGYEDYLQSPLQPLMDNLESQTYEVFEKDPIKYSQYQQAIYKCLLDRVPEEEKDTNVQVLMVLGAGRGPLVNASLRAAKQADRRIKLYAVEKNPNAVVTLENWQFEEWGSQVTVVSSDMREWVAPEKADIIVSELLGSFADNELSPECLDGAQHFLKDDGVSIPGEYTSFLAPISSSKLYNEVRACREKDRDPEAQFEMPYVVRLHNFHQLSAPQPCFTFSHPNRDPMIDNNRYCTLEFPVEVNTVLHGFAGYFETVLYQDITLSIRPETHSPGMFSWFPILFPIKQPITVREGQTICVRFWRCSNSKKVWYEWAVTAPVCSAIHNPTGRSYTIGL
PRMT5/MEP50 protein complex, sequence (Q9BQA1 whole entry partner): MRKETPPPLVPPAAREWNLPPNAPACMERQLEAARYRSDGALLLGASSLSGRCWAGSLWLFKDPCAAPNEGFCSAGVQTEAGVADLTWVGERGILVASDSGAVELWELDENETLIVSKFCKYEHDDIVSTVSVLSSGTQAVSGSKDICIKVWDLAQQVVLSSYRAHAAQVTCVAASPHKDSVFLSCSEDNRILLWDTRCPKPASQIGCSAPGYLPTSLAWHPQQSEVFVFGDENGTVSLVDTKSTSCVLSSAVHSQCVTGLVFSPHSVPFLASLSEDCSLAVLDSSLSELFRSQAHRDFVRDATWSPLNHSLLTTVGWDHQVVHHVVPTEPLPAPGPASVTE
Summary of the method: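 Scintillation read-out: after 25 min at room temperature and a TCA stop, tritiated H4(1-21) product (peptide 200 nM) is caught on a filter plate. Reaction holds 10 nM PRMT5/MEP50 and 1 uM 3H-labelled plus cold SAM in 50 mM Tris pH 8.5 with MgCl2, EDTA and TCEP. IC50 values come from a 4-parameter dose-response fit.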

Row | Structure (SMILES) | IC50 [1] | IC50 [2]
1 | Cc1cc2c(c(O[C@H]3C[C@@H](n4cc(F)c5c(C)ncnc54)[C@H](O)[C@@H]3O)c1)CNCC2 [Example 124, (1S,2S,3R,5S)-3-(5-fluoro-4-methyl-7H-pyrrolo[2,3-d]pyrimidin-7-yl)-5-((6-methyl-1,2,3,4-tetrahydroisoquinolin-8-yl)oxy)cyclopentane-1,2-diol] | 3830 nM | 2 nM
2 | Cc1ncnc2c1ccn2[C@@H]1C[C@H](Cc2ccc(Cl)cc2CN)[C@@H](O)[C@H]1O [Example 55, (1S,2R,3S,5R)-3-(2-(aminomethyl)-4-chlorobenzyl)-5-(4-methyl-7H-pyrrolo[2,3-d]pyrimidin-7-yl)cyclopentane-1,2-diol] | 3170 nM | 2 nM
3 | Nc1ncnc2c1c(Cl)cn2[C@@H]1C[C@H](Oc2cc(Cl)cc3c2CNCC3)[C@@H](O)[C@H]1O [Example 130, (1S,2S,3R,5S)-3-(4-amino-5-chloro-7H-pyrrolo[2,3-d]pyrimidin-7-yl)-5-((6-chloro-1,2,3,4-tetrahydroisoquinolin-8-yl)oxy)cyclopentane-1,2-diol] | 983 nM | 1 nM
4 | Nc1ncnc2c1c(Cl)cn2[C@@H]1C[C@H](Oc2ccc(F)c3c2CNCC3)[C@@H](O)[C@H]1O [Example 133, (1S,2S,3R,5S)-3-(4-amino-5-chloro-7H-pyrrolo[2,3-d]pyrimidin-7-yl)-5-((5-fluoro-1,2,3,4-tetrahydroisoquinolin-8-yl)oxy)cyclopentane-1,2-diol] | 443 nM | 1 nM
5 | Cc1ncnc2c1ccn2[C@@H]1C[C@H](Oc2cc(Br)c(F)c3c2CNCC3)[C@@H](O)[C@H]1O [Example 94, (1S,2S,3S,5R)-3-((6-bromo-5-fluoro-1,2,3,4-tetrahydroisoquinolin-8-yl)oxy)-5-(4-methyl-7H-pyrrolo[2,3-d]pyrimidin-7-yl)cyclopentane-1,2-diol] | 115 nM | 1 nM
6 | Cc1ncnc2c1ccn2[C@@H]1C[C@H](Oc2ccc(Cl)c(F)c2CN)[C@@H](O)[C@H]1O [Example 143, (1S,2S,3S,5R)-3-(2-(aminomethyl)-4-chloro-3-fluorophenoxy)-5-(4-methyl-7H-pyrrolo[2,3-d]pyrimidin-7-yl)cyclopentane-1,2-diol] | 1400 nM | 6 nM
7 | Cc1cc2c(c(O[C@H]3C[C@@H](n4ccc5c(C)ncnc54)[C@H](O)[C@@H]3O)n1)CNCC2 [Example 181, (1S,2S,3S,5R)-3-((3-methyl-5,6,7,8-tetrahydro-2,7-naphthyridin-1-yl)oxy)-5-(4-methyl-7H-pyrrolo[2,3-d]pyrimidin-7-yl)cyclopentane-1,2-diol] | 1140 nM | 1 nM
8 | Cc1ncnc2c1ccn2[C@@H]1C[C@H](Oc2cc(C(F)F)cc3c2CNCC3)[C@@H](O)[C@H]1O [Example 154, (1S,2S,3S,5R)-3-((6-(difluoromethyl)-1,2,3,4-tetrahydroisoquinolin-8-yl)oxy)-5-(4-methyl-7H-pyrrolo[2,3-d]pyrimidin-7-yl)cyclopentane-1,2-diol] | 2 nM | 1 nM
9 | Cc1ncnc2c1ccn2[C@@H]1C[C@H](Oc2ccc(F)cc2CN)[C@@H](O)[C@H]1O [Example 66, (1S,2S,3S,5R)-3-(2-(aminomethyl)-4-fluorophenoxy)-5-(4-methyl-7H-pyrrolo[2,3-d]pyrimidin-7-yl)cyclopentane-1,2-diol] | 6810 nM | 4 nM
10 | Cc1ncnc2c1c(F)cn2[C@@H]1C[C@H](Oc2cccc3c2CNCC3)[C@@H](O)[C@H]1O [Example 117, (1S,2S,3R,5S)-3-(5-fluoro-4-methyl-7H-pyrrolo[2,3-d]pyrimidin-7-yl)-5-((1,2,3,4-tetrahydroisoquinolin-8-yl)oxy)cyclopentane-1,2-diol] | 7140 nM | 5 nM
11 | CCc1cc2c(c(O[C@H]3C[C@@H](n4cc(F)c5c(N)ncnc54)[C@H](O)[C@@H]3O)c1)CNCC2 [Example 106, (1S,2S,3R,5S)-3-(4-amino-5-fluoro-7H-pyrrolo[2,3-d]pyrimidin-7-yl)-5-((6-ethyl-1,2,3,4-tetrahydroisoquinolin-8-yl)oxy)cyclopentane-1,2-diol] | 3850 nM | 2 nM
